Data set [1] in a line: Acute toxicity (LD50, Behrens-Karber method). Format: in vivo, ICR mice. To be noted: mouse, in vivo, ip, mortality during 30 days. The method, then: Test compounds, dissolved or suspended in 0.5% aqueous CMC, were each intraperitoneally administered to ICR mice in a dose of 0.1 ml per 10 g body weight. LD50 (mg/kg) value of each test compound was calculated from the mortality of mice during 30 days by the Behrens-Karber method.

Data set [2] relates to Leukemia L1210. Description: Activity against Leukemia L1210, intraperitoneal, increase in life span of mice. In kind it is in vivo, female mice (BDF1 family). To be noted: for ED (maximum ILS) / ED30: Mus musculus, L1210, ip, ip once a day for 5 successive days; for ED (maximum ILS): daily dosage giving maximum increase of life span, read-out: O.D. (optimum dosage); for ED30: daily dosage increasing average survival days by 30%, read-out: ILS30; for Survivors after 60 days / Max. ILS % / Therapeutic ratio TR: ip; for Survivors after 60 days: 6-membered group; for Max. ILS %: 60-day observation, versus control; for Therapeutic ratio TR: O.D./ILS30. The method in brief: (§1)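 Female BDF1 mice (20 to 23 g; 6 per group) were implanted intraperitoneally with 1×10^5 L1210 cells, then dosed ip or orally once daily for 5 days starting 24 h later. Survival was followed over 60 days, and ILS% was derived from mean survival days versus untreated controls.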

In data set [3] the test system is Leukemia L1210. Description: Activity against Leukemia L1210, oral, increase in life span of mice. Format: in vivo, female mice (BDF1 family). To be noted: for ED (maximum ILS) / ED30: Mus musculus, L1210, oral once a day for 5 successive days; for ED (maximum ILS): daily dosage giving maximum increase of life span, read-out: O.D. (optimum dosage); for ED30: daily dosage increasing average survival days by 30%, read-out: ILS30; for Survivors after 60 days / Max. ILS % / Therapeutic ratio TR: oral; for Survivors after 60 days: 6-membered group; for Max. ILS %: 60-day observation, versus control; for Therapeutic ratio TR: O.D./ILS30. In a few lines: as §1

A short description of data set [4]: Diuretic activity, acute sodium loaded mouse screening test. To be noted: 50 mg/kg oral in 1% saline; for Cl^- / K^+ / Na^+: urine. Format: in vivo, male mice. The method, then:
The diuretic activity of the compounds of this invention was assayed by the diuresis screening test referred to as "acute sodium loaded mouse". This test was carried out by the following method.
The acute sodium loaded mouse screening test was carried out by using a 10-membered group of male mice (each weighing 18 to 24 g). Test compounds were incorporated in 1% saline (NaCl) solution and orally administered in a volume of 10 ml/kg. The mice were placed in metabolic cages. Each treated group consisted of 10-members. Five members were placed in one cage. Tests were conducted by oral administrations of (A) 1% saline (NaCl) solution to the control group and (B) 1% saline (NaCl) solution containing a test compound according to this invention.
The determination was carried out for sodium, potassium, and chlorine in each pooled urine sample. The determination of sodium and potassium was carried out by flame photometer. Chlorine was determined by chloride analysis apparatus. The analytical values of sodium, potassium, and chlorine were shown with an average mg equivalent (m Eq)/Kg/5 hours, and the diuretic activity was shown with an average urine volume (ml)/Kg/5 hours.

In data set [5] the test system is Ehrlich acites carcinoma. As to the kind of experiment: Growth-inhibiting effect against Ehrlich acites carcinoma. To be noted: Mus musculus, Ehrlich, 120 h, 5 days; for response vs control in vivo at 25 mg/kg: 25 mg/kg/day ip; for response vs control in vivo at 100 mg/kg: 100 mg/kg/day ip. Format: in vivo, male mice. In a few lines: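 Male mice (groups of 6) implanted intraperitoneally with 1×10^7 Ehrlich ascites cells; compounds in 1% Nikkol HCO-60 given i.p. once daily for 5 days starting 24 hrs post-implantation. Total packed cell volume measured at day 7; T/C% vs untreated group, scored - (100-66), + (65-41), ++ (40-11), +++ (10-0).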

Molecules are shown by their SMILES. Read-outs that look alike come from different tables or passages of the source. Bounds are passed on as bounds.

The LD50 is the dose at which mortality reaches 50%. A low value points to greater toxicity. As for `CC(C)CO[C@H]1O[C@H](CN(CC2CCCO2)C(=O)N(CCCl)N=O)[C@@H](O)[C@H](O)[C@H]1O` (stereo partly drawn) [Compound 23, 3-tetrahydrofurfuryl-3-(isobutyl α-D-glucopyranose-6-yl)-1-(2-chloroethyl)-1-nitrosourea], the LD50 at 720 h in data set [1] came to 620 mg/kg. In addition, in data set [2], the ED (maximum ILS) stood at 200 mg/kg, the ED30 worked out at 3 mg/kg, the “Survivors after 60 days” value is given as 5/6 and the “Max. ILS %” value is reported as above 630%. Further, the “Therapeutic ratio TR” value in data set [2] was 66.7. For the same compound, in data set [3], the ED (maximum ILS) worked out at 250 mg/kg, the ED30 is 8.74 mg/kg, the “Survivors after 60 days” value is given as 5/6 and the “Max. ILS %” value is above 625%. In addition, in data set [3], the “Therapeutic ratio TR” value was 28.6. For the same compound, in data set [4], the Urine volume is given as 10.2 ml/kg/5 hrs, the “Cl^-” value worked out at 0.8 mEq/kg/5 hrs, the “K^+” value is recorded as 1.0 mEq/kg/5 hrs and the “Na^+” value was 0.7 mEq/kg/5 hrs. Moreover, in data set [5] (read-out: Activity), the response vs control in vivo at 25 mg/kg was 0 to 10% and the response vs control in vivo at 100 mg/kg lay within 0 to 10%. In addition, in data set [5] (read-out: T/C %), the response vs control in vivo at 25 mg/kg stood at 0% and the response vs control in vivo at 100 mg/kg was 0%.

Compound `COCCN(C[C@H]1O[C@H](OC2CCCCC2)[C@H](O)[C@@H](O)[C@@H]1O)C(=O)N(CCCl)N=O` [Compound 39, 3-(2-methoxyethyl)-3-(cyclohexyl α-D-glucopyranose-6-yl)-1-(2-chloroethyl)-1-nitrosourea] displayed an LD50 at 720 h in data set [1] of 510 mg/kg. Further, in data set [2], the ED (maximum ILS) was 170 mg/kg, the ED30 was determined as 2.47 mg/kg, the “Survivors after 60 days” value was 6/6 and the “Max. ILS %” value was above 700%. Also, the “Therapeutic ratio TR” value in data set [2] is given as 68.8. Besides, in data set [3], the ED (maximum ILS) turned out to be 220 mg/kg, the ED30 is 7.43 mg/kg, the “Survivors after 60 days” value is given as 5/6 and the “Max. ILS %” value is reported as above 635%. Further, the “Therapeutic ratio TR” value in data set [3] stood at 29.6. Moreover, in data set [4], the Urine volume is recorded as 9.2 ml/kg/5 hrs, the “Cl^-” value was found to be 0.7 mEq/kg/5 hrs, the “K^+” value is 0.8 mEq/kg/5 hrs and the “Na^+” value came to 0.6 mEq/kg/5 hrs. In data set [5] (read-out: Activity), the response vs control in vivo at 25 mg/kg was in the range of 0 to 10% and the response vs control in vivo at 100 mg/kg lay in the range of 0 to 10%. Further, in data set [5] (read-out: T/C %), the response vs control in vivo at 25 mg/kg worked out at 0% and the response vs control in vivo at 100 mg/kg stood at 0%.

Regarding `COC(C)CO[C@H]1O[C@H](CN(CC2CCCO2)C(=O)N(CCCl)N=O)[C@H](O)[C@H](O)[C@H]1O` (stereo partly drawn) [Compound 117, 3-tetrahydrofurfuryl-3-(2-methoxy-n-propyl α-D-galactopyranose-6-yl)-1-(2-chloroethyl)-1-nitrosourea], in data set [1], the LD50 at 720 h came out at 610 mg/kg. In data set [2], the ED (maximum ILS) was 200 mg/kg, the ED30 was found to be 3.3 mg/kg, the “Survivors after 60 days” value is 6/6 and the “Max. ILS %” value is above 700%. In data set [2], the “Therapeutic ratio TR” value was 60.6. Further, in data set [4], the Urine volume is given as 8.4 ml/kg/5 hrs, the “Cl^-” value is 0.7 mEq/kg/5 hrs, the “K^+” value was 0.9 mEq/kg/5 hrs and the “Na^+” value is 0.5 mEq/kg/5 hrs. For the same compound, in data set [5] (read-out: Activity), the response vs control in vivo at 25 mg/kg lay in the range of 0 to 10% and the response vs control in vivo at 100 mg/kg lay within 0 to 10%. In data set [5] (read-out: T/C %), the response vs control in vivo at 25 mg/kg came out at 0% and the response vs control in vivo at 100 mg/kg came out at 0%.

In data set [1], `COCCN(C[C@H]1O[C@H](OCC(C)C)[C@@H](O)[C@@H](O)[C@@H]1O)C(=O)N(CCCl)N=O` [Compound 135, 3-(2-methoxyethyl)-3-(isobutyl α-D-mannopyranose-6-yl)-1-(2-chloroethyl)-1-nitrosourea] displayed an LD50 at 720 h of 620 mg/kg. Besides, in data set [2], the ED (maximum ILS) was found to be 200 mg/kg, the ED30 worked out at 2.92 mg/kg, the “Survivors after 60 days” value was 6/6 and the “Max. ILS %” value is given as above 700%. Moreover, the “Therapeutic ratio TR” value in data set [2] turned out to be 68.5. In addition, in data set [3], the ED (maximum ILS) is 240 mg/kg, the ED30 is 9.92 mg/kg, the “Survivors after 60 days” value is 6/6 and the “Max. ILS %” value was above 700%. Besides, in data set [3], the “Therapeutic ratio TR” value is given as 24.2. For the same compound, in data set [4], the Urine volume was 9.7 ml/kg/5 hrs, the “Cl^-” value is recorded as 0.8 mEq/kg/5 hrs, the “K^+” value is given as 0.9 mEq/kg/5 hrs and the “Na^+” value is on record as 0.7 mEq/kg/5 hrs. In addition, in data set [5] (read-out: Activity), the response vs control in vivo at 25 mg/kg was 0 to 10% and the response vs control in vivo at 100 mg/kg lay in the range of 0 to 10%. Further, in data set [5] (read-out: T/C %), the response vs control in vivo at 25 mg/kg stood at 0% and the response vs control in vivo at 100 mg/kg amounted to 0%.

In the case of `CCOCCCN(C(=O)N(CCCl)N=O)[C@H]1[C@H](OC(C)CC)OC[C@H](O)[C@@H]1O` (stereo partly drawn) [Compound 157, 3-(3-ethoxy-n-propyl)-3-(sec-butyl α-L-arabinopyranose-2-yl)-1-(2-chloroethyl)-1-nitrosourea], in data set [1], the LD50 at 720 h was 550 mg/kg. Besides, in data set [2], the ED (maximum ILS) stood at 170 mg/kg, the ED30 is 2.94 mg/kg, the “Survivors after 60 days” value is 6/6 and the “Max. ILS %” value was above 700%. The “Therapeutic ratio TR” value in data set [2] was found to be 57.8. Moreover, in data set [4], the Urine volume was 10.5 ml/kg/5 hrs, the “Cl^-” value is on record as 1.1 mEq/kg/5 hrs, the “K^+” value worked out at 1.0 mEq/kg/5 hrs and the “Na^+” value is recorded as 0.8 mEq/kg/5 hrs. In data set [5] (read-out: Activity), the response vs control in vivo at 25 mg/kg was 0 to 10% and the response vs control in vivo at 100 mg/kg lay in the range of 0 to 10%. Further, in data set [5] (read-out: T/C %), the response vs control in vivo at 25 mg/kg was 0% and the response vs control in vivo at 100 mg/kg turned out to be 0%.

In data set [1], `CC(C)(C)N(C[C@H]1O[C@H](OCCN2CCOCC2)[C@H](O)[C@@H](O)[C@@H]1O)C(=O)N(CCCl)N=O` [Compound 181, 3-tert-butyl-3-(2-morpholinoethyl α-D-glucopyranose-6-yl)-1-(2-chloroethyl)-1-nitrosourea] came in with an LD50 at 720 h of 530 mg/kg. Moreover, in data set [2], the ED (maximum ILS) stood at 160 mg/kg, the ED30 is 2.89 mg/kg, the “Survivors after 60 days” value is given as 6/6 and the “Max. ILS %” value is on record as above 700%. For the same compound, the “Therapeutic ratio TR” value in data set [2] was found to be 55.4. In data set [4], the Urine volume was found to be 13.1 ml/kg/5 hrs, the “Cl^-” value came to 1.3 mEq/kg/5 hrs, the “K^+” value amounted to 1.2 mEq/kg/5 hrs and the “Na^+” value is on record as 1.1 mEq/kg/5 hrs. Further, in data set [5] (read-out: Activity), the response vs control in vivo at 25 mg/kg is 0 to 10% and the response vs control in vivo at 100 mg/kg lay within 0 to 10%. Besides, in data set [5] (read-out: T/C %), the response vs control in vivo at 25 mg/kg was found to be 0% and the response vs control in vivo at 100 mg/kg was found to be 0%.
